Data on 3 compounds can be found in US10005824B2, “Selective PYY compounds and uses thereof” (Novo Nordisk A/S, priority 2015, dated 2018).

One series concerns the target T1, human Y2 receptor (Homo sapiens, UniProt P49146).
T1 construct: expressed in transfected cells; host or cells: CHO-K1 (membrane preparation)
T1 sequence (P49146 1-381): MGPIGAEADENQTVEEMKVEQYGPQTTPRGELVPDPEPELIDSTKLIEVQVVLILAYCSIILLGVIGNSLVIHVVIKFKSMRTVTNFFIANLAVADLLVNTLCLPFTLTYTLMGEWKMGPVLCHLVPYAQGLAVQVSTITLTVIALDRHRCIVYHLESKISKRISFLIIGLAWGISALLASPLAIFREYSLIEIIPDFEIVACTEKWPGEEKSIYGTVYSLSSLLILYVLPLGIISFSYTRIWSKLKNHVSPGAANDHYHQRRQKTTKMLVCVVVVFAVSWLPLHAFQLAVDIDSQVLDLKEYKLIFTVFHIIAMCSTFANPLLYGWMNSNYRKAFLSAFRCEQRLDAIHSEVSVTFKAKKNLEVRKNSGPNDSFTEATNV
Kind of series: Scintillation proximity assay (SPA) receptor binding, Y2. The protocol: (§1) The purpose of this example is to test the in vitro binding of the PYY compounds to the Y1, Y2, Y4 and Y5 receptor subtypes, respectively. The receptor binding affinity is a measure of affinity of a compound for the human Y1, Y2, Y4 and Y5 receptor subtypes, respectively.
(§2) Scintillation Proximity Assay (SPA)
(§3) NPY-Receptor Expressing Cell Lines.
All cells were cultured at +37° C. in a humidified atmosphere with 5% CO2. […] CHO-K1 cells stably expressing the human Y2 receptor (P49146, NPY2R_HUMAN, Uniprot) were cultured in DMEM F-12 with 10% FBS, 1% P/S, 150 μg/ml Hygromycin B and 10 μg/ml Puromycin antibiotic. CHO-K1 cells stably expressing the human Y4 receptor (P50391, NPY4R_HUMAN, Uniprot) were cultured in DMEM F-12 with 10% FBS, 1% P/S, 10 μg/ml Puromycin. HEK-293 cells stably expressing the human Y5 receptor (Q15761, NPY5R_HUMAN, Uniprot) were cultured in DMEM F-12 medium containing 10% FBS, 1% Penicillin-Streptomycin, 250 μg/ml G418 and 1 μg/ml puromycin. […]
(§4) Plates were sealed and incubated at +25° C. for 2 hours in a plate shaker set at 400 rpm and thereafter centrifuged at 1500 rpm for 10 minutes prior to reading of luminescence on a microplate scintillation and luminescence counter. […] Displacement of radioligand was measured as reduction in luminescence and IC50 values were calculated by nonlinear regression analysis of sigmoidal dose-response curves.

The target in another series is T2, human Y1 receptor (Homo sapiens, UniProt P25929).
T2 construct: expressed in transfected cells; host or cells: BHK-21 clone 6-482-8, IPTG-induced (membrane preparation)
T2 sequence (P25929 1-384): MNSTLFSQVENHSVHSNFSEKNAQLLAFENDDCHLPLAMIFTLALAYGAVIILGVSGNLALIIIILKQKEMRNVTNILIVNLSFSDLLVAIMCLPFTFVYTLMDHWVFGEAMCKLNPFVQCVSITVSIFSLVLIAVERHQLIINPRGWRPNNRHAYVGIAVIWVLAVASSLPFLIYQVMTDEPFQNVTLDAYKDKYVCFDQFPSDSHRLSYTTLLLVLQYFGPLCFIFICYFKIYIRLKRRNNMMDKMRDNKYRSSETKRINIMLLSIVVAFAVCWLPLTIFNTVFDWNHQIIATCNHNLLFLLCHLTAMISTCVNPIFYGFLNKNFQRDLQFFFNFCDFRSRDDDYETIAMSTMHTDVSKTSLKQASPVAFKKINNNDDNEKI
The experiment in a line: Scintillation proximity assay (SPA) receptor binding, Y1. The protocol: as §1, §2, §3
(§5) All cells were cultured at +37° C. in a humidified atmosphere with 5% CO2. […] CHO-K1 cells stably expressing the human Y2 receptor (P49146, NPY2R_HUMAN, Uniprot) were cultured in DMEM F-12 with 10% FBS, 1% P/S, 150 μg/ml Hygromycin B and 10 μg/ml Puromycin antibiotic. CHO-K1 cells stably expressing the human Y4 receptor (P50391, NPY4R_HUMAN, Uniprot) were cultured in DMEM F-12 with 10% FBS, 1% P/S, 10 μg/ml Puromycin. HEK-293 cells stably expressing the human Y5 receptor (Q15761, NPY5R_HUMAN, Uniprot) were cultured in DMEM F-12 medium containing 10% FBS, 1% Penicillin-Streptomycin, 250 μg/ml G418 and 1 μg/ml puromycin.
(§6) The homogenate was centrifuged at 35000 g using an ultracentrifuge for 10 minutes at +4° C. and the supernatant was discarded and fresh homogenization buffer added. Homogenization of the pellet was repeated a total of three times.
(§7) Human Y receptor SPA binding assay were performed in white 96-well plates in a total volume of 200 μl per well.
as §4

The nature of series [1]: Pharmacokinetic study in minipigs after i.v. administration. Type of series: in vivo. As to conditions: female, Göttingen, minipig, plasma, iv, 15 nmol/kg; read-out: Half-life (t½) (converted). The text has this:
By terminal half-life is generally meant the period of time it takes to halve a certain plasma concentration, measured after the initial distribution phase.
After minimum 2 weeks of acclimatization two permanent central venous catheters were implemented in vena cava caudalis in each animal. After surgery the animals were in their normal individual pens during the pharmacokinetic experiments.
On day 1 the catheters are coupled to extension tubes, which will be removed at the end of day 1. […] Samples were kept on wet ice until centrifugation (10 min, 4° C., 1942 g).
Plasma concentration-time profiles was analysed by a non-compartmental pharmacokinetics analysis using Phoenix (Pharsight Inc., Mountain View, Calif., USA). Calculations were performed using individual concentration-time values from each animal.

A further series deals with T3, human Y4 receptor (Homo sapiens, UniProt P50391).
T3 construct: expressed in transfected cells; host or cells: CHO-K1 (membrane preparation)
T3 sequence (P50391 whole entry): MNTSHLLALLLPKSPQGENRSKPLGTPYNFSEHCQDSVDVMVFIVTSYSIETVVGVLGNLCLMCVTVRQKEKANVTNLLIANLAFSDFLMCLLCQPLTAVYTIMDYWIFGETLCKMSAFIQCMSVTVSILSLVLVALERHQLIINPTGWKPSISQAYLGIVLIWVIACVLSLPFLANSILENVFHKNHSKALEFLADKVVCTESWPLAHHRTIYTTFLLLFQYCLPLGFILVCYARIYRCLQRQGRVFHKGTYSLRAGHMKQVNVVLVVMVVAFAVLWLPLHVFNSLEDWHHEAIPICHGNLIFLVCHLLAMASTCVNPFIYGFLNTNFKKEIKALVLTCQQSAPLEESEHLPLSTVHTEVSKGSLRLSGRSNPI
Kind of series: Scintillation proximity assay (SPA) receptor binding, Y4. As to conditions: Y4 Ki, membranes of CHO-K1 cells, [125I]-Pancreatic Polypeptide. The protocol: as §1, §2, §3, §5, §6, §7, §4

`CC(C)CC(=O)N[C@@H](CCCNC(=N)N)C(=O)N1CCC[C@H]1C(=O)N[C@@H](CCC(=O)O)C(=O)N[C@@H](CCCCNC(=O)CC[C@H](NC(=O)CCCCCCCCCCCCCCCCC(=O)O)C(=O)O)C(=O)N1CCC[C@H]1C(=O)N[C@H](C(=O)N[C@@H](CCC(=O)O)C(=O)N[C@@H](CC(=O)O)C(=O)N[C@@H](C)C(=O)N[C@@H](CO)C(=O)N1CCC[C@H]1C(=O)N[C@@H](CCC(=O)O)C(=O)N[C@@H](CCC(=O)O)C(=O)N[C@@H](CC(C)C)C(=O)N[C@@H](CCC(N)=O)C(=O)N[C@@H](CCCNC(=N)N)C(=O)N[C@@H](Cc1ccc(O)cc1)C(=O)N[C@@H](Cc1ccc(O)cc1)C(=O)N[C@H](C(=O)N[C@@H](CO)C(=O)N[C@@H](CC(C)C)C(=O)N[C@@H](CCCNC(=N)N)C(=O)N[C@@H](Cc1c[nH]cn1)C(=O)N[C@@H](Cc1ccc(O)cc1)C(=O)N[C@@H](Cc1ccc(O)cc1)C(=O)N[C@@H](CC(N)=O)C(=O)N[C@@H](Cc1c[nH]c2ccccc12)C(=O)N[C@@H](CC(C)C)C(=O)N[C@H](C(=O)N[C@@H](CCCNC(=N)N)C(=O)N[C@@H](CCC(N)=O)C(=O)N[C@@H](CCCNC(=N)N)C(=O)N[C@@H](Cc1ccc(O)cc1)C(N)=O)[C@@H](C)O)C(C)C)[C@@H](C)O` [Compound 44, N{alpha-4}-(3-Methylbutanoyl)-N{Epsilon-7}-[(4S)-4-carboxy-4-(17-carboxy-heptadecanoylamino)butanoyl]-[Arg4,Lys7,Thr9,Gln18,Val22,Tyr28,Trp30,Leu31]hPYY(4-36)]: the values for the inhibitory constant (Ki) at human Y2 receptor and at human Y1 receptor were 0.00033 µM and greater than 10 µM, respectively.

For `CC(C)CC(=O)N[C@@H](CCCNC(=N)N)C(=O)N1CCC[C@H]1C(=O)N[C@@H](CCC(=O)O)C(=O)N[C@@H](C)C(=O)N1CCC[C@H]1C(=O)NCC(=O)N[C@@H](CCCCNC(=O)CC[C@H](NC(=O)COCCOCCNC(=O)CC[C@H](NC(=O)CCCCCCCCCCCCCCCCC(=O)O)C(=O)O)C(=O)O)C(=O)N[C@@H](CC(=O)O)C(=O)N[C@@H](C)C(=O)N[C@@H](CO)C(=O)N1CCC[C@H]1C(=O)N[C@@H](CCC(=O)O)C(=O)N[C@@H](CCC(=O)O)C(=O)N[C@@H](CC(C)C)C(=O)N[C@@H](CCC(N)=O)C(=O)N[C@@H](CCCNC(=N)N)C(=O)N[C@@H](Cc1ccc(O)cc1)C(=O)N[C@@H](Cc1ccc(O)cc1)C(=O)N[C@@H](CCC(=O)O)C(=O)N[C@@H](CO)C(=O)N[C@@H](CC(C)C)C(=O)N[C@@H](CCCNC(=N)N)C(=O)N[C@@H](Cc1c[nH]cn1)C(=O)N[C@@H](Cc1ccc(O)cc1)C(=O)N[C@@H](Cc1ccc(O)cc1)C(=O)N[C@@H](CC(N)=O)C(=O)N[C@@H](Cc1c[nH]c2ccccc12)C(=O)N[C@@H](CC(C)C)C(=O)N[C@H](C(=O)N[C@@H](CCCNC(=N)N)C(=O)N[C@@H](CCC(N)=O)C(=O)N[C@@H](CCCNC(=N)N)C(=O)N[C@@H](Cc1ccc(O)cc1)C(N)=O)[C@@H](C)O` [Compound 50, N{alpha-4}-(3-Methylbutanoyl)-N{Epsilon-10}-[(4S)-4-carboxy-4-[[2-[2-[2-[[(4S)-4-carboxy-4-(17-carboxyheptadecanoylamino)butanoyl]amino]ethoxy]ethoxy]-acetyl]amino]butanoyl]-[Arg4,Lys10,Gln18,Glu22,Tyr28,Trp30,Leu31]-PYY(4-36)], in series [1], the half-life is 94 h. Moreover, the inhibitory constant (Ki) on human Y1 receptor and at human Y4 receptor was greater than 10 µM each time.

As to `CC(C)CC(=O)N[C@@H](CCCNC(=N)N)C(=O)N1CCC[C@H]1C(=O)N[C@@H](CCC(=O)O)C(=O)N[C@@H](C)C(=O)N1CCC[C@H]1C(=O)N1CCC[C@H]1C(=O)N[C@@H](CCCCNC(=O)CC[C@H](NC(=O)COCCOCCNC(=O)CC[C@H](NC(=O)CCCCCCCCCCCCCCCS(=O)(=O)O)C(=O)O)C(=O)O)C(=O)N[C@@H](CC(=O)O)C(=O)N[C@@H](C)C(=O)N[C@@H](CO)C(=O)N1CCC[C@H]1C(=O)N[C@@H](CCC(=O)O)C(=O)N[C@@H](CCC(=O)O)C(=O)N[C@@H](CC(C)C)C(=O)N[C@@H](CCC(N)=O)C(=O)N[C@@H](CCCNC(=N)N)C(=O)N[C@@H](Cc1ccc(O)cc1)C(=O)N[C@@H](Cc1ccc(O)cc1)C(=O)N[C@@H](C)C(=O)N[C@@H](CO)C(=O)N[C@@H](CC(C)C)C(=O)N[C@@H](CCCNC(=N)N)C(=O)N[C@@H](Cc1c[nH]cn1)C(=O)N[C@@H](Cc1ccc(O)cc1)C(=O)N[C@@H](Cc1ccc(O)cc1)C(=O)N[C@@H](CC(N)=O)C(=O)N[C@@H](Cc1c[nH]c2ccccc12)C(=O)N[C@@H](CC(C)C)C(=O)N[C@H](C(=O)N[C@@H](CCCNC(=N)N)C(=O)N[C@@H](CCC(N)=O)C(=O)N[C@@H](CCCNC(=N)N)C(=O)N[C@@H](Cc1ccc(O)cc1)C(N)=O)[C@@H](C)O` [Compound 69, N{alpha-4}-(3-Methylbutanoyl)-N{Epsilon-10}-[(4S)-4-carboxy-4-[[2-[2-[2-[[(4S)-4-carboxy-4-(16-sulfohexadecanoylamino)butanoyl]amino]ethoxy]-ethoxy]acetyl]amino]butanoyl]-[Arg4,Pro9,Lys10,Gln18,Tyr28,Trp30,Leu31]-PYY-(4-36)], the half-life in series [1] was 64 h. Besides, the Ki on human Y1 receptor is greater than 10 µM; on human Y4 receptor, 5.69 µM.

A word on the Ki: it is a dissociation constant, usually derived from enzyme kinetics or from competition with a known ligand. A low value points to tighter binding. The half-life is how long it takes for the measured level to halve.
